# Key:
# [1] = Toxicity (hazard class) of possible ingredients; conditions: hazard symbol or 'none'
# [2] = Solubility in water of possible ingredients; type: physicochemical
molecule,measurement,setting,value
CCOC(=O)CC(CC(C)=O)C(=O)OCC (centres unmarked) [diethyl acetonyl succinate],Toxicity,[1],none
COCCOCCO [diethylene glycol monomethyl ether],Solubility in H2O,[2]; result in words,complete
COCCOCCOCCOCCOC [tetraethylene glycol dimethyl ether],Toxicity,[1],none
same,Solubility in H2O,[2]; result in words,complete
CCOCCOCCOCC [diethylene glycol diethyl ether],Toxicity,[1],none
same,Solubility in H2O,[2]; result in words,complete
CCCOCCOCCOCCC [diethylene glycol dipropyl ether],Toxicity,[1],none
same,Solubility in H2O,[2]; result in words,complete
CCCCOCCOCCOCCCC [diethylene glycol dibutyl ether],Solubility in H2O,[2]; given as percent,0.3%
lauryl ethercarboxylic acid (10 EO),Toxicity,[1],none
same,Solubility in H2O,[2]; result in words,complete
C[S+](C)[O-] [dimethyl sulfoxide],Toxicity,[1],none
same,Solubility in H2O,[2]; result in words,complete
octyl ethercarboxylic acid (8 EO),Toxicity,[1],none
same,Solubility in H2O,[2]; result in words,complete
oleyl ethercarboxylic acid (9 EO),Toxicity,[1],none
same,Solubility in H2O,[2]; result in words,complete
CC1COC(=O)O1 (centres unmarked) [propylene carbonate],Solubility in H2O,[2]; given as percent,24%
COCCOCCOCCOCCO [tetraethylene glycol monomethyl ether],Toxicity,[1],none
same,Solubility in H2O,[2]; result in words,complete
CCCCOCCOCCO [diethylene glycol monobutyl ether],Solubility in H2O,[2]; given as percent,10%
CCCOC(C)COC(C)CO (centres unmarked) [dipropylene glycol monopropyl ether],Toxicity,[1],none
same,Solubility in H2O,[2]; result in words,complete
CCOCCOCCO [diethylene glycol monoethyl ether],Toxicity,[1],none
same,Solubility in H2O,[2]; result in words,complete
CCCCOCCOCCOC(C)=O [[2-(2-butoxyethoxy)-ethyl]-acetate],Toxicity,[1],none
same,Solubility in H2O,[2]; given as percent,6.5%
COC(C)COC(C)CO (centres unmarked) [dipropylene glycol monomethyl ether],Toxicity,[1],none
same,Solubility in H2O,[2]; result in words,complete
CCOC(C)COC(C)CO (centres unmarked) [dipropylene glycol monoethyl ether],Toxicity,[1],none
same,Solubility in H2O,[2]; result in words,complete
O=C1CCCO1 [γ-butyrolactone],Solubility in H2O,[2]; result in words,complete
COC(=O)CCC(=O)OC [dimethyl succinate],Solubility in H2O,[2]; given as percent,7.5%
COC(C)COC(C)COC(C)CO (centres unmarked) [tripropylene glycol monomethyl ether],Toxicity,[1],none
same,Solubility in H2O,[2]; result in words,complete
CCCOCCOCCO [diethylene glycol monopropyl ether],Toxicity,[1],none
same,Solubility in H2O,[2]; result in words,complete
CCCCOC(C)COC(C)COC(C)CO (centres unmarked) [tripropylene glycol monobutyl ether],Toxicity,[1],none
CN1CCCC1=O [N-methyl-2-pyrrolidinone],Solubility in H2O,[2]; result in words,complete
O=C1OCCO1 [ethylene carbonate],Toxicity,[1],none
PEG-8 Oleate,Toxicity,[1],none
COCC(C)OCC(C)OC (centres unmarked) [dipropylene glycol dimethyl ether],Toxicity,[1],none
same,Solubility in H2O,[2]; result in words,complete
COCCOCCOCCO [triethylene glycol monomethyl ether],Toxicity,[1],none
COCCOCCOCCOC [triethylene glycol dimethyl ether],Toxicity,[1],none
same,Solubility in H2O,[2]; result in words,complete
COCCOCCOC [diethylene glycol dimethyl ether],Solubility in H2O,[2]; result in words,complete

# Reference: patent US20100273696A1, “Composition and method for the prevention and removal of unwanted paint on a surface” (priority 2009, published 2010)
